# How the values were obtained:
# [1] = tested on: Myotonic Dystrophy 1 affected patient fibroblasts (Coriel GM04602; 1600 CTG repeats); assay: DM1 foci reduction assay (EC50 assay; CAG10-Cy3 FISH, foci per nucleus); format: cell-based; conditions: Homo sapiens, Fibroblast; DM1 patient fibroblasts, 48 h treatment, foci per nucleus; read-out: DM1 EC50, 48 h
# How it was run: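 Foci per nucleus counted by 20× imaging of 4 areas per well, after overnight FISH with 5 nM CAG10-Cy3 and DAPI staining of fixed, permeabilized cells. DM1 fibroblasts (GM04602, 1600 CTG) were dosed 48 h at 37 °C, 8 points, 3-fold dilutions, 3 μM top concentration.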
# F35T cells = assay: Foci reduction in FECD (CAG10-Cy3 FISH, foci per nucleus); format: cell-based; conditions: F35T cells, 48 h treatment, foci per nucleus; read-out: FECD EC50, 48 h
# How it was run: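 Foci per nucleus were counted by imaging after overnight CAG10-Cy3 FISH at 37 °C (30% formamide, 2×SSC) with DAPI counterstain, on PFA-fixed, ethanol-permeabilized F35T cells. The cells, seeded at 5000 per well in supplemented Opti-MEM, had received 8-point compound dilutions for 48 h at 37 °C.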
Structure (SMILES),EC50 [1] [nM],EC50 (F35T cells) [nM]
CCCCCNC(=O)c1nc(NC(=O)c2cc(NC(=O)CCNC(=O)c3nc(NC(=O)CCCNC(=O)c4cc(NC(=O)c5nc(NC(=O)CCNC(=O)c6cc(NC(=O)c7nccn7C)cn6C)cn5C)cn4CCCCCCN=[N+]=[N-])cn3C)cn2C)cn1C [Compound B-232],< 100,< 100
CN(CCCNC(=O)c1cccc(C(=O)O)c1)CCCNC(=O)c1nc(NC(=O)c2cc(NC(=O)CCNC(=O)c3nc(NC(=O)CCCNC(=O)c4cc(NC(=O)c5nc(NC(=O)CCNC(=O)c6cc(NC(=O)c7nccn7C)cn6C)cn5C)cn4CCCCCCN=[N+]=[N-])cn3C)cn2C)cn1C [Compound B-233],100 to 500,100 to 500
CCCNC(=O)c1nc(NC(=O)c2cc(NC(=O)CCNC(=O)c3nc(NC(=O)CCCNC(=O)c4cc(NC(=O)c5nc(NC(=O)CCNC(=O)c6cc(NC(=O)c7nccn7C)cn6C)cn5C)cn4CCCCCCN)cn3C)cn2C)cn1C [Compound B-234],500 to 1000,100 to 500
CCCNC(=O)c1nc(NC(=O)c2cc(NC(=O)CCNC(=O)c3nc(NC(=O)CCCNC(=O)c4cc(NC(=O)c5nc(NC(=O)CCNC(=O)c6cc(NC(=O)c7nccn7C)cn6C)cn5C)cn4CCCCCCNC(=O)CCOCCOCCOCCOCCOCCOC)cn3C)cn2C)cn1C [Compound B-235],> 1000,> 1000
CCCCCNC(=O)c1nc(NC(=O)c2cc(NC(=O)CCNC(=O)c3nc(NC(=O)CCCNC(=O)c4cc(NC(=O)c5nc(NC(=O)CCNC(=O)c6cc(NC(=O)c7nccn7C)cn6C)cn5C)cn4CCCCCCNC(=O)CCOCCOCCOCCOCCOCCOC)cn3C)cn2C)cn1C [Compound B-236],100 to 500,100 to 500
COCCOCCOCCOCCOCCOCCC(=O)NCCCCCCn1cc(NC(=O)c2nc(NC(=O)CCNC(=O)c3cc(NC(=O)c4nccn4C)cn3C)cn2C)cc1C(=O)NCCCC(=O)Nc1cn(C)c(C(=O)NCCC(=O)Nc2cc(C(=O)Nc3cn(C)c(C(=O)NCCCN(C)CCCNC(=O)c4cccc(C(=O)O)c4)n3)n(C)c2)n1 [Compound B-237],500 to 1000,100 to 500
COCCOCCOCCOCCOCCOCCC(=O)NCCCCCCn1cc(NC(=O)c2nc(NC(=O)CCNC(=O)c3cc(NC(=O)c4nccn4C)cn3C)cn2C)cc1C(=O)NCCCC(=O)Nc1cn(C)c(C(=O)NCCC(=O)Nc2cc(C(=O)Nc3cn(C)c(C(=O)NCCC(=O)N4CCC(C#CC#CC5CCN(C(C)=O)CC5)CC4)n3)n(C)c2)n1 [Compound B-239],100 to 500,100 to 500
COCCOCCOCCOCCOCCOCCC(=O)NCCCCCCn1cc(NC(=O)c2nc(NC(=O)CCNC(=O)c3cc(NC(=O)c4nccn4C)cn3C)cn2C)cc1C(=O)NCCCC(=O)Nc1cn(C)c(C(=O)NCCC(=O)Nc2cc(C(=O)Nc3cn(C)c(C(=O)NCCC(=O)N4CCC(C#CC#CC5CCNCC5)CC4)n3)n(C)c2)n1 [Compound B-240],100 to 500,< 100
COCCOCCOCCOCCN(CCCNC(=O)CCNC(=O)c1nc(NC(=O)c2cc(NC(=O)CCNC(=O)c3nc(NC(=O)CCCNC(=O)c4cc(NC(=O)c5nc(NC(=O)CCNC(=O)c6cc(NC(=O)c7nccn7C)cn6C)cn5C)cn4C)cn3C)cn2C)cn1C)CCOCCOCCOCCOC [Compound B-241],100 to 500,100 to 500
Cn1cc(NC(=O)c2nc(NC(=O)CCNC(=O)c3cc(NC(=O)c4nccn4C)cn3C)cn2C)cc1C(=O)NCCCC(=O)Nc1cn(C)c(C(=O)NCCC(=O)Nc2cc(C(=O)Nc3cn(C)c(C(=O)NCC#Cc4ccccc4)n3)n(C)c2)n1 [Compound B-245],< 100,< 100
Cn1cc(NC(=O)c2nc(NC(=O)CCNC(=O)c3cc(NC(=O)c4nccn4C)cn3C)cn2C)cc1C(=O)NCCCC(=O)Nc1cn(C)c(C(=O)NCCC(=O)Nc2cc(C(=O)Nc3cn(C)c(C(=O)NCCCNCC#Cc4ccccc4)n3)n(C)c2)n1 [Compound B-247],< 100,< 100
Cn1cc(NC(=O)c2nc(NC(=O)CCNC(=O)c3cc(NC(=O)c4nccn4C)cn3C)cn2C)cc1C(=O)NCCCC(=O)Nc1cn(C)c(C(=O)NCCC(=O)Nc2cc(C(=O)Nc3cn(C)c(C(=O)NCCCNCC#Cc4cccc(C(=O)O)c4)n3)n(C)c2)n1 [Compound B-248],100 to 500,< 100

# Source: patent publication US20250368628A1, “METHODS AND COMPOUNDS FOR MODULATING INHERITED GENETIC DISEASES” (Design Therapeutics, Inc., priority 2022, published 2025)
